pKd: −log10 of the molar value. Numbered stars: 1 amine (or outer) side, 2 acyl side, 3 side chain; on linkers, the order of the positions; unused ones are H or OH. Bridge positions count the residues as written; N and C are the ends. Square brackets hold non-standard residues; d marks the D form. Side chains are listed from the residue outwards. Peptide text beside a SMILES is read from it. * marks the point of attachment. X4 = O=C(O)CN1CCN(CC(=O)O)CCN(CC(=O)N[C@H]2CC[C@H](CC(=O)*)CC2)CCN(CC(=O)O)CC1; X9 = O=C(O)CN1CCN(CC(=O)O)CCN(CC(=O)NCCCOCCOCCOCCCN*)CCN(CC(=O)O)CC1; DOTA = O=C(O)CN1CCN(CC(=O)O)CCN(CC(=O)*)CCN(CC(=O)O)CC1; Trp(7-Me) = Cc1cccc2c(C[C@H](N)C(=O)O)c[nH]c12; Trp(7-aza) = N[C@@H](Cc1c[nH]c2ncccc12)C(=O)O; γGlu = O=C(O)[C@H](CCC(=O)[*:2])N[*:1]; 2Nal = N[C@@H](Cc1ccc2ccccc2c1)C(=O)O; Nva(3-Et) = CCC(CC)[C@H](N)C(=O)O; Cha = N[C@@H](CC1CCCCC1)C(=O)O; Chg = N[C@H](C(=O)O)C1CCCCC1; Suc = O=C(CCC(=O)[*:2])[*:1]
The compounds below were run against T1, human DLL3 (Homo sapiens, UniProt Q9NYJ7) (assay: Affinity determination by Surface Plasmon Resonance (SPR)). Conditions: 25° C., biotinylated human DLL3 immobilized on streptavidin sensor chip, 1:1 binding model; read-out: SPR KD.
T1 sequence (Q9NYJ7 27-618): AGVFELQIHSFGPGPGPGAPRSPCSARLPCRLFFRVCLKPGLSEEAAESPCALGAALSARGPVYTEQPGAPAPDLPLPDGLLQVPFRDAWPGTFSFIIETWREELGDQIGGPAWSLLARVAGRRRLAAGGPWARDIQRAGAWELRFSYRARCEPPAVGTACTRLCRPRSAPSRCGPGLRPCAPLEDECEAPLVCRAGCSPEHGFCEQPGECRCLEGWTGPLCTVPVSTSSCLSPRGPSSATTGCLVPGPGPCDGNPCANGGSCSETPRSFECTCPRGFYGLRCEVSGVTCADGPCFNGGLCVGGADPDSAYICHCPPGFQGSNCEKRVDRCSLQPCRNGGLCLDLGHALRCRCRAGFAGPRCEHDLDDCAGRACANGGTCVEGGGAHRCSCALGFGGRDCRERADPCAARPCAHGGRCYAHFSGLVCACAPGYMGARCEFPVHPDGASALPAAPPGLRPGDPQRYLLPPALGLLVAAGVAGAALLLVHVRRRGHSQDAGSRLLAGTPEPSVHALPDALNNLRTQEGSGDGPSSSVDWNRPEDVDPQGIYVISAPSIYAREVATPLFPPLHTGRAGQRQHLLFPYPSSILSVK
Assay type: binding
Procedure, shortened: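 Biotinylated human DLL3 was captured on a streptavidin chip with a reference surface. Compounds at several concentrations were injected at 100 μL/minute in phosphate buffer (137 mM NaCl, 2.7 mM KCl, 0.05% P20, 2% DMSO). Affinity and kinetics came from 1:1 model fits of the sensorgrams.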

Compound	pKd
CCC(CC)[C@H](NC(=O)[C@@H](NC(=O)[C@H](Cc1c[nH]c2ccccc12)NC(C)=O)[C@@H](C)O)C(=O)N[C@H]1CSSC[C@@H](C(=O)N[C@@H](Cc2c[nH]c3ncccc23)C(=O)N2CCC[C@H]2C(=O)N[C@H](CCCCNC(=O)C[C@H]2CC[C@H](NC(=O)CN3CCN(CC(=O)O)CCN(CC(=O)O)CCN(CC(=O)O)CC3)CC2)C(N)=O)NC(=O)[C@H](CC(=O)O)NC(=O)[C@H](Cc2cnc[nH]2)NC(=O)[C@H](Cc2ccc3ccccc3c2)NC(=O)[C@H](CC(N)=O)NC(=O)[C@H](CC(N)=O)NC1=O [compound 202, Ac-W-T-(Env)-C(3)-N-N-(2Nal)-H-D-C(3)-(7-Aza-W)-P-[D-Lys(Chx-DOTA)]-NH2] (Ac-WT[Nva(3-Et)]CNN[2Nal]HDC[Trp(7-aza)]P[dK](X4)-NH2; disulfide 4-10)	8.00 to 9.00
CC[C@H](C)[C@H](NC(=O)[C@@H](NC(=O)[C@H](Cc1c[nH]c2c(C)cccc12)NC(C)=O)[C@@H](C)O)C(=O)N[C@H]1CSSC[C@@H](C(=O)N[C@@H](Cc2c[nH]c3ccccc23)C(=O)N2CCC[C@H]2C(=O)N[C@H](CCCCNC(=O)CC[C@H](NC(=O)CC[C@H](NC(=O)CC[C@H](NC(=O)CN2CCN(CC(=O)O)CCN(CC(=O)O)CCN(CC(=O)O)CC2)C(=O)O)C(=O)O)C(=O)O)C(N)=O)NC(=O)[C@H](CC(=O)O)NC(=O)[C@H](Cc2cnc[nH]2)NC(=O)[C@H](Cc2ccc3ccccc3c2)NC(=O)[C@H](CC(N)=O)NC(=O)[C@H](CC(N)=O)NC1=O [compound 207, Ac-(7-Me-W)-T-I-C(3)-N-N-(2Nal)-H-D-C(3)-W-P-[D-Lys(gE-gE-gE-DOTA)]-NH2] (Ac-[Trp(7-Me)]TICNN[2Nal]HDCWP[dK]([γGlu-γGlu-γGlu-DOTA])-NH2; disulfide 4-10)	> 9.00
CC[C@H](C)[C@H](NC(=O)[C@@H](NC(=O)[C@H](Cc1c[nH]c2ccccc12)NC(C)=O)[C@@H](C)O)C(=O)N[C@H]1CSSC[C@@H](C(=O)N[C@@H](Cc2c[nH]c3ccccc23)C(=O)N2CCC[C@H]2C(=O)N[C@H](CCCCNC(=O)CN2CCN(CC(=O)O)CCN(CC(=O)O)CCN(CC(=O)O)CC2)C(N)=O)NC(=O)[C@H](CC(=O)O)NC(=O)[C@H](Cc2cnc[nH]2)NC(=O)[C@H](Cc2ccc3ccccc3c2)NC(=O)[C@H](CC(N)=O)NC(=O)[C@H](CO)NC1=O [compound 208, Ac-W-T-I-C(3)-(Ser)-N-(2Nal)-H-D-C(3)-W-P-[D-Lys(DOTA)]-NH2] (Ac-WTICSN[2Nal]HDCWP[dK](DOTA)-NH2; disulfide 4-10)	> 9.00
CC[C@H](C)[C@H](NC(=O)[C@@H](NC(=O)[C@H](Cc1c[nH]c2ccccc12)NC(C)=O)[C@@H](C)O)C(=O)N[C@H]1CSSC[C@@H](C(=O)N[C@@H](Cc2c[nH]c3ccccc23)C(=O)N2CCC[C@H]2C(=O)N[C@H](CCCCNC(=O)CN2CCN(CC(=O)O)CCN(CC(=O)O)CCN(CC(=O)O)CC2)C(N)=O)NC(=O)[C@H](CC(=O)O)NC(=O)[C@H](Cc2cnc[nH]2)NC(=O)[C@H](Cc2ccc3ccccc3c2)NC(=O)[C@H](CC(=O)O)NC(=O)[C@H](CC(N)=O)NC1=O [compound 209, Ac-W-T-I-C(3)-N-(Asp)-(2Nal)-H-D-C(3)-W-P-[D-Lys(DOTA)]-NH2] (Ac-WTICND[2Nal]HDCWP[dK](DOTA)-NH2; disulfide 4-10)	> 9.00
CC[C@H](C)[C@H](NC(=O)[C@@H](NC(=O)[C@H](Cc1c[nH]c2ccccc12)NC(C)=O)[C@@H](C)O)C(=O)N[C@H]1CSSC[C@@H](C(=O)N[C@@H](Cc2c[nH]c3ccccc23)C(=O)N2CCC[C@H]2C(=O)N[C@H](CCCCNC(=O)CN2CCN(CC(=O)O)CCN(CC(=O)O)CCN(CC(=O)O)CC2)C(N)=O)NC(=O)[C@H](CC(=O)O)NC(=O)[C@H](Cc2cnc[nH]2)NC(=O)[C@H](Cc2ccc3ccccc3c2)NC(=O)[C@H](CCCCN)NC(=O)[C@H](CC(N)=O)NC1=O [compound 213, Ac-W-T-I-C(3)-N-(Lys)-(2Nal)-H-D-C(3)-W-P-[D-Lys(DOTA)]-NH2] (Ac-WTICNK[2Nal]HDCWP[dK](DOTA)-NH2; disulfide 4-10)	> 9.00

The next lines start with the values.

pKd	Compound
> 9.00	CC(=O)N[C@@H](Cc1c[nH]c2ccccc12)C(=O)N[C@H](C(=O)N[C@H](C(=O)N[C@H]1CSSC[C@@H](C(=O)N[C@@H](Cc2c[nH]c3ncccc23)C(=O)N2CCC[C@H]2C(=O)N[C@H](CCCCNC(=O)CN2CCN(CC(=O)O)CCN(CC(=O)O)CCN(CC(=O)O)CC2)C(N)=O)NC(=O)[C@H](CC(=O)O)NC(=O)[C@H](Cc2cnc[nH]2)NC(=O)[C@H](Cc2ccc3ccccc3c2)NC(=O)[C@H](C)NC(=O)[C@H](CC(N)=O)NC1=O)C1CCCCC1)[C@@H](C)O [compound 197, Ac-W-T-(Chg)-C(3)-N-A-(2Nal)-H-D-C(3)-(7-Aza-W)-P-[D-Lys(DOTA)]-NH2] (Ac-WT[Chg]CNA[2Nal]HDC[Trp(7-aza)]P[dK](DOTA)-NH2; disulfide 4-10)
> 9.00	CC(=O)N[C@@H](Cc1c[nH]c2ccccc12)C(=O)N[C@H](C(=O)N[C@@H](CC1CCCCC1)C(=O)N[C@H]1CSSC[C@@H](C(=O)N[C@@H](Cc2c[nH]c3ncccc23)C(=O)N2CCC[C@H]2C(=O)N[C@H](CCCCNC(=O)CN2CCN(CC(=O)O)CCN(CC(=O)O)CCN(CC(=O)O)CC2)C(N)=O)NC(=O)[C@H](CC(=O)O)NC(=O)[C@H](Cc2cnc[nH]2)NC(=O)[C@H](Cc2ccc3ccccc3c2)NC(=O)[C@H](C)NC(=O)[C@H](CC(N)=O)NC1=O)[C@@H](C)O [compound 198, Ac-W-T-(CHA)-C(3)-N-A-(2Nal)-H-D-C(3)-(7-Aza-W)-P-[D-Lys(DOTA)]-NH2] (Ac-WT[Cha]CNA[2Nal]HDC[Trp(7-aza)]P[dK](DOTA)-NH2; disulfide 4-10)
> 9.00	CCC(CC)[C@H](NC(=O)[C@@H](NC(=O)[C@H](Cc1c[nH]c2ccccc12)NC(C)=O)[C@@H](C)O)C(=O)N[C@H]1CSSC[C@@H](C(=O)N[C@@H](Cc2c[nH]c3ncccc23)C(=O)N2CCC[C@H]2C(=O)N[C@H](CCCCNC(=O)CN2CCN(CC(=O)O)CCN(CC(=O)O)CCN(CC(=O)O)CC2)C(N)=O)NC(=O)[C@H](CC(=O)O)NC(=O)[C@H](Cc2c[nH]cn2)NC(=O)[C@H](Cc2ccc3ccccc3c2)NC(=O)[C@H](C)NC(=O)[C@H](CC(N)=O)NC1=O [compound 199, Ac-W-T-(Env)-C(3)-N-A-(2Nal)-H-D-C(3)-(7-Aza-W)-P-[D-Lys(DOTA)]-NH2] (Ac-WT[Nva(3-Et)]CNA[2Nal]HDC[Trp(7-aza)]P[dK](DOTA)-NH2; disulfide 4-10)
> 9.00	CC(=O)N[C@@H](Cc1c[nH]c2ccccc12)C(=O)N[C@H](C(=O)N[C@H](C(=O)N[C@H]1CSSC[C@@H](C(=O)N[C@@H](Cc2c[nH]c3ncccc23)C(=O)N2CCC[C@H]2C(=O)N[C@H](CCCCNC(=O)C[C@H]2CC[C@H](NC(=O)CN3CCN(CC(=O)O)CCN(CC(=O)O)CCN(CC(=O)O)CC3)CC2)C(N)=O)NC(=O)[C@H](CC(=O)O)NC(=O)[C@H](Cc2cnc[nH]2)NC(=O)[C@H](Cc2ccc3ccccc3c2)NC(=O)[C@H](CC(N)=O)NC(=O)[C@H](CC(N)=O)NC1=O)C1CCCCC1)[C@@H](C)O [compound 203, Ac-W-T-(Chg)-C(3)-N-N-(2Nal)-H-D-C(3)-(7-Aza-W)-P-[D-Lys(Chx-DOTA)]-NH2] (Ac-WT[Chg]CNN[2Nal]HDC[Trp(7-aza)]P[dK](X4)-NH2; disulfide 4-10)
> 9.00	CCC(CC)[C@H](NC(=O)[C@@H](NC(=O)[C@H](Cc1c[nH]c2ccccc12)NC(C)=O)[C@@H](C)O)C(=O)N[C@H]1CSSC[C@@H](C(=O)N[C@@H](Cc2c[nH]c3ncccc23)C(=O)N2CCC[C@H]2C(=O)N[C@H](CCCCNC(=O)CCC(=O)NCCCOCCOCCOCCCNC(=O)CN2CCN(CC(=O)O)CCN(CC(=O)O)CCN(CC(=O)O)CC2)C(N)=O)NC(=O)[C@H](CC(=O)O)NC(=O)[C@H](Cc2c[nH]cn2)NC(=O)[C@H](Cc2ccc3ccccc3c2)NC(=O)[C@H](CC(N)=O)NC(=O)[C@H](CC(N)=O)NC1=O [compound 204, Ac-W-T-(Env)-C(3)-N-N-(2Nal)-H-D-C(3)-(7-Aza-W)-P-[D-Lys(G-G-TTDS-DOTA)]-NH2] (Ac-WT[Nva(3-Et)]CNN[2Nal]HDC[Trp(7-aza)]P[dK]([Suc-X9])-NH2; disulfide 4-10)
> 9.00	CC[C@H](C)[C@H](NC(=O)[C@@H](NC(=O)[C@H](Cc1c[nH]c2c(C)cccc12)NC(C)=O)[C@@H](C)O)C(=O)N[C@H]1CSSC[C@@H](C(=O)N[C@@H](Cc2c[nH]c3ccccc23)C(=O)N2CCC[C@H]2C(=O)N[C@H](CCCCNC(=O)CN2CCN(CC(=O)O)CCN(CC(=O)O)CCN(CC(=O)O)CC2)C(N)=O)NC(=O)[C@H](CC(=O)O)NC(=O)[C@H](Cc2cnc[nH]2)NC(=O)[C@H](Cc2ccc3ccccc3c2)NC(=O)[C@H](CC(N)=O)NC(=O)[C@H](CC(N)=O)NC1=O [compound 206, Ac-(7-Me-W)-T-I-C(3)-N-N-(2Nal)-H-D-C(3)-W-P-[D-Lys(DOTA)]-NH2] (Ac-[Trp(7-Me)]TICNN[2Nal]HDCWP[dK](DOTA)-NH2; disulfide 4-10)
